Each block holds one compound with its values, some of them ahead of it.
Assays:
Sprague-Dawley rats = experiment: Mechanical allodynia degree (threshold), von Frey up-down method, after plantar incision; assay type: in vivo; settings: Gb: Ro 0.75% 300 + SC 300 (ropivacaine 2.25 mg); for threshold value (g), group average: once near sciatic nerve
Description: Specific pathogen-free (SPF) Sprague-Dawley rats [Cr1:CD (Sprague Dawley)] (Producer: Orient Bio Inc. (322, Galmachi-ro, Jungwon-gu, Seongnam-si, Gyeonggi-do)) were prepared according to the following condition. • (1) Number of animals at acquisition: male 28 rats • (2) Age at acquisition: about 7-week-old • (3) Body weight range at acquisition: 199.29 to 222.35 g • (4) Age at start of administration: about 8-week-old • (5) Body weight range at start of administration: 265.63 to 294.00 g • (6) Number of animals used: 24 rats • (7) Group separation
After disinfecting the left plantar part of the prepared test animals under general anesthesia, the skin and fascia with a length of 1 cm were incised in the longitudinal direction starting from the part 0.5 cm away from the tip of the back of the foot. The sole muscle (plantar muscle) of the incised part was lifted with forceps to separate 1 cm in length. […] All Ga to Gd doses […] were equally administered near the nerve tissue, and the number of animals comprised in the experimental group were 6.
As a method for measuring the degree of mechanical allodynia after preparing the test groups, a white rat was placed in a wire mesh cage with a net eye size of 2×2 mm and acclimatized for 15 minutes or more, and then the continuous reaction was evaluated by an up-down method using 8 consecutive von Frey filaments (1, 2, 4, 6, 8, 15, 26, 60 g, Stoelting, USA) when the movement of the rat became quiet. […] It was progressed as the weak filament was stimulated when the positive reaction was shown by stimulating from the von Frey filament in the center, and the strong filament was stimulated when there was no positive reaction. By the above method, measurement was performed before, and at 1, 2, 4, 8, 24, 48, 72, 120, 168 hours after administration of the test substance. For interpretation of the result of the pain behavior test, the case in that avoidance reaction was shown or the foot was lifted up on the net while in contact with a plastic plate was determined as positive. Stimulation was given twice at an interval of 3-5 minutes, and using the positive threshold among them, a response change curve with time was obtained.
Pain threshold values were measured before and at 1, 2, 4, 8, 24, 48, 72, 120, 168 after administration of the test substance of each animal of the Ga to Gd group test groups, and the average of the threshold values of each test group was calculated. In Table 4 below, the threshold value (g) measured over time of drug administration was shown.

[1] = Drug release behavior of bupivacaine (dialysis bag in PBS, RP-HPLC); assay type: physicochemical; settings: 8 hours; PBS 37° C., 100 rpm
Description: By mixing the crosslinked hyaluronic acid gels, JPD001, JPD004 and (mixture of JPD001 and JPD004 at a weight ratio of 1:1) comprising the crosslinked hyaluronic acid solid prepared in Example 1 at a content of 2% by weight, which are Samples 1-1, 1-4 and 1-5 of Example 1 of 6 g, respectively, and 0.75% by weight bupivacaine solution 3 g, a drug preparation was prepared. A preparation in which non-crosslinked hyaluronic acid having a molecular weight of 1,500 kDa (repeated unit molecular weight 401.3) 2% by weight and a preparation comprising only the bupivacaine drug were prepared, respectively, as a control group.
The prepared drug preparation was put in a dialysis bag (MWCO: 12 K-14 K Da), separately. Then, the dialysis bag was immersed into a tube with 15 ml phosphate buffer solution. The 50 mL conical tube in which the immersed dialysis bag was put was placed in a shaking tank maintained at 37° C. and shaken at 100 rpm horizontally. Then, at scheduled time intervals, a release medium (PBS) aliquot of 1.5 mL was collected and the entire release medium was replaced with new PBS to maintain a sink condition. Quantification of the released bupivacaine was determined by reverse-phase high-performance liquid chromatography (RP-HPLC) using a ZORBAX Eclipse XDB C18 column (4.6 mm×250 mm, 5 μm) and acetonitrile/pH 8.0 buffer (60:40, v/v) for 10 minutes or more.

Structure (SMILES): CCCN1CCCC[C@H]1C(=O)Nc1c(C)cccc1C [Ropivacaine, ropivacaine]
time at which the pain was completely recovered (Sprague-Dawley rats): 120 h
threshold value (g), group average (Sprague-Dawley rats; 0 hr (before administration)): 60 g
threshold value (g), group average (Sprague-Dawley rats; 1 hr): 60 g
threshold value (g), group average (Sprague-Dawley rats; 2 hr): 60 g
threshold value (g), group average (Sprague-Dawley rats; 4 hr): 37.3 g
threshold value (g), group average (Sprague-Dawley rats; 8 hr): 31.7 g
threshold value (g), group average (Sprague-Dawley rats; 24 hr): 28.0 g
threshold value (g), group average (Sprague-Dawley rats; 48 hr): 17.5 g
threshold value (g), group average (Sprague-Dawley rats; 72 hr): 29.8 g
threshold value (g), group average (Sprague-Dawley rats; 120 hr): 60 g
threshold value (g), group average (Sprague-Dawley rats; 168 hr): 60 g

cumulative release amount of bupivacaine [1]: 99%
Structure (SMILES): CCCCN1CCCCC1C(=O)Nc1c(C)cccc1C (stereo not drawn) [bupivacaine]

— patent publication US12521384B2, “Drug delivery composition using crosslinked hyaluronic acid and manufacturing method therefor” (JP cares, priority 2020, dated 2026)
